Source: patent US8865721B2, “Delta opioid receptor agonist compounds” (priority 2001, dated 2014)
“Also recorded” adds a separate entry of the source. Where two headings read alike, the source gives them in different places.

How the values were obtained:
[1] = system: male CD-1 mice, electrically stimulated ejaculation; experiment: electroejaculation test in conscious male mice (bipolar rectal probe); assay type: in vivo, mouse; conditions: for Effective Dose / Ejaculation Inhibition % / Max. ejaculation Inhibition / Optimal Dose: male mice; for Effective Dose / Ejaculation Inhibition %: oral; for Ejaculation Inhibition %: at the effective dose; for Max. ejaculation Inhibition / Optimal Dose: subcutaneous injection; for Max. ejaculation Inhibition: at the optimal dose; for Optimal Dose: dose giving max. ejaculation inhibition
Protocol: To investigate the efficacy of delta opioid receptor agonists as a treatment for premature ejaculation, intact conscious male mice were electrically stimulated subsequent to the administration of a delta opioid receptor agonist to determine if a delay in ejaculation was observed when compared to administration of a placebo
Male, CD-1 mice (20-30 g) were housed in groups of ten (10) in Plexiglas® chambers with food and water available before any procedure. Animals were maintained on a 12 hour light/dark cycle in a temperature-controlled animal colony. Studies were carried out in accordance with the Guide for the Care and Use of Laboratory animals as adopted and promulgated by the National Institutes of Health.
Specifically, the bipolar electrode probe is an approximately 5 cm long tube having an outer diameter of approximately 0.25 cm with an inner diameter of approximately 0.08. In the center lumen of the elongated tubular body 12 are embedded cathode 16 and anode 18, which are formed of a conductive material, preferably platinum. The cathode 16 and anode 18 are connected at one end to external power supplying means (not shown). Anode 18 extends at the other end all the way to one extremity of the elongated body 12 and forming an anode terminal 22 at such extremity. Cathode 16 only extends to a middle portion of the elongated body 12 and forming a cathode terminal 20 at such middle portion. The cathode terminal 20 is preferably positioned away from the anode terminal 22, at a distance of about 0.5 cm.
The testing delta opioid receptor agonist (SNC-80) was purchased from Tocris Cookson, Inc., Ellisville, Mo., USA, and dissolved in 5% dextrose injection solution. An equimolar amount of aqueous hydrochloric acid was added when the manufacturer packaged the compound in its base form. The placebo was 5% dextrose alone. Each mouse was injected subcutaneously with […] of the SNC-80 compound or with 10 mg/kg of a placebo. 10 minutes after the injection, the test mouse was subjected to electrostimulation. Ten mice were tested for each dose level, the order of each mouse receiving different doses was blinded and in a random manner.
During the testing the mouse was restrained in a cone bag with rear legs extending from the bag. Excess fecal matter was removed from the rectum and the above-discussed lubricated bipolar electrode was inserted approximately 2.5 cm into the rectum. […] The stimulation regime included 4 stimulating events for each voltage lasting 2 seconds with a rest period of 2 seconds between stimulating events until ejaculation occurred or the terminal voltage of 8 volts was reached. A white coagulum ejaculate from the penis indicates a successful ejaculation.
For the electroejaculation test, dose-response lines were constructed as an accumulated ejaculation at a specified voltage. A minimum of 10 mice was used at each dose level. Each dose response was the average of two to three independent experiments. Students' t-test was used to assess unpaired comparison, with […] indicating significance.
Testing was conducted on mice injected with SNC-80 or a buffer vehicle for the control group. […] Each mouse was subjected to electroejaculation at 40 Hz (starting at 3 volts with a gradual increase to 8 volts by increments of 0.5 volts) approximately 10 minutes after subcutaneous administration of SNC-80 at different doses of 0, 0.1, 0.3 and 1 mg/kg. A minimum of 10 mice were used at each dose level. Each does response was the average of two to three independent experiments±SEM.
To determine if SNC-80 inhibits the ejaculation via specific binding to delta opioid receptor, the effect of SNC-80 on ejaculation was tested against the delta opioid selective antagonist naltrindole (NTI). Subcutaneous injections of a control vehicle (CTL), 0.5 mg/kg SNC-80, 0.5 mg/kg SNC-80 plus 0.1 mg/kg of NTI and 0.1 mg/kg of NTI were administered to the mice. A minimum of 10 mice was utilized for each dose level. […]

[2] = molecular target: delta opioid receptor (Homo sapiens, UniProt P41143); experiment: radio-ligand competition binding assay, δ
[3] = molecular target: κ opioid receptor (Homo sapiens, UniProt P41145); experiment: radio-ligand competition binding assay, κ
[4] = system: mouse vas deferens; experiment: in vitro inhibition of electrically stimulated contraction of mouse vas deferens in tissue bath
[5] = molecular target: μ opioid receptor (Homo sapiens, UniProt P35372); experiment: radio-ligand competition binding assay, μ
[6] = system: mouse vas deferens; conditions: background statement; cited from earlier work
[7] = radio-ligand competition binding per U.S. Pat. Nos. 5,985,880 and 5,807,858, read-out: δ binding affinity
[8] = radio-ligand competition binding per U.S. Pat. Nos. 5,985,880 and 5,807,858, read-out: κ binding affinity

4-(alpha-R)-alpha-((2S,5R)-4-(Cyclopropylmethyl)-2,5-dimethyl-1-piperazinyl)-3-hydroxybenzyl)-N,N-diethylbenzamide [Example 35]
Effective Dose [1]: 0.3 mg/kg
Ejaculation Inhibition % [1]: 60%

CCN(CC)C(=O)c1ccc([C@H](c2cccc(O)c2)N2C[C@@H](C)N(Cc3ccc(F)cc3)C[C@@H]2C)cc1 [Example 11, 4-((alpha-R)-alpha-((2S,5R)-2,5-Dimethyl-4-(4-fluorobenzyl)-1-piperazinyl)-3-hydroxybenzyl)-N,N-diethylbenzamide]
Ki [2, 7]: 1.23 nM
Ki [3, 8]: > 100 nM
EC50 [4]: 2.8 nM
Ki [5]: 27.1 nM
Max. ejaculation Inhibition [1]: 30%
Optimal Dose [1]: 5 mg/kg

CCN(CC)C(=O)c1ccc([C@H](c2cccc(O)c2)N2C[C@@H](C)N(Cc3ccccc3)C[C@@H]2C)cc1 [Example 12, 4-((alpha-R)-alpha-((2S,5R)-4-Benzyl-2,5-dimethyl-1-piperazinyl)-3-hydroxybenzyl)-N,N-diethylbenzamide]
Ki [2, 7]: 0.123 nM
Ki [3, 8]: 68.7 nM
EC50 [4]: 4.4 nM
Ki [5]: 1.45 nM
Max. ejaculation Inhibition [1]: 28%
Optimal Dose [1]: 5 mg/kg

CCN(CC)C(=O)c1ccc([C@H](c2cccc(O)c2)N2C[C@@H](C)N(Cc3ccc(C(=O)O)cc3)C[C@@H]2C)cc1 [Example 13, 4-{(2R,5S)-4-[(R)-(4-Diethylcarbamoylphenyl)(3-hydroxyphenyl)methyl]-2,5-dimethylpiperazin-1-ylmethyl)benzoic acid]
Ki [2]: 5.69 nM
Ki [3]: > 100 nM
EC50 [4]: 21.2 nM
Ki [5]: 3470 nM
Max. ejaculation Inhibition [1]: 50%
Optimal Dose [1]: 5 mg/kg

C=CCN1C[C@H](C)N([C@H](c2ccc(C(=O)N(CC)CC)cc2)c2cccc(OCC(=O)O)c2)C[C@H]1C [Example 14, 3-((alpha-R)-alpha-((2S,5R)-4-Allyl-2,5-dimethyl-1-piperazinyl)-4-(diethylamino-carbonyl)benzyl)phenoxyacetic acid]
Ki [2]: 11.1 nM
Ki [3]: > 100 nM
EC50 [4]: 7.2 nM
Ki ([5]; radio-ligand competition binding per U.S. Pat. Nos. 5,985,880 and 5,807,858, read-out: μ binding affinity): 162 nM
Effective Dose [1]: 0.01 mg/kg
Ejaculation Inhibition % [1]: 45%
Max. ejaculation Inhibition [1]: 35%
Optimal Dose [1]: 10 mg/kg

CCN(CC)C(=O)c1ccc([C@H](c2cccc(OCC(=O)O)c2)N2C[C@@H](C)N(Cc3ccccc3)C[C@@H]2C)cc1 [Example 15, 3-((alpha-R)-alpha-((2S,5R)-4-Benzyl-2,5-dimethyl-1-piperazinyl)-4-(diethylaminocarbonyl)benzyl)phenoxyacetic acid]
Effective Dose [1]: 3 mg/kg
Ejaculation Inhibition % [1]: 66%

CCN(CC)C(=O)c1cccc([C@H](c2cccc(O)c2)N2C[C@@H](C)N(Cc3cccc(O)c3)C[C@@H]2C)c1 [Example 17, N,N-Diethyl-3-((R)-((2S,5R)-2,5-dimethyl-4-(3-hydroxybenzyl)piperazin-1-yl)(3-hydroxyphenyl)methyl)benzamide]
Ki [2, 7]: 0.66 nM
Ki [3, 8]: 20.9 nM
EC50 [4]: 2.9 nM
Ki [5]: 1.28 nM
Max. ejaculation Inhibition [1]: 50%
Optimal Dose [1]: 1 mg/kg

CCN(CC)C(=O)c1ccc([C@H](c2cccc(OC)c2)N2C[C@@H](C)N(Cc3ccc(F)cc3)C[C@@H]2C)cc1 [Example 29, 4-((alpha-R)-alpha-((2S,5R)-2,5-Dimethyl-4-(4-fluorobenzyl)-1-piperazinyl)-3-methoxybenzyl)-N,N-diethylbenzamide]
Effective Dose [1]: 3 mg/kg
Ejaculation Inhibition % [1]: 38%

CCN(CC)C(=O)c1ccc([C@H](c2cccc(O)c2)N2C[C@@H](C)N(Cc3cccc(F)c3)C[C@@H]2C)cc1 [Example 36, 4-((alpha-R)-alpha-((2S,5R)-2,5-Dimethyl-4-(3-fluorobenzyl)-1-piperazinyl)-3-hydroxybenzyl)-N,N-diethylbenzamide]
Effective Dose [1]: 3 mg/kg
Ejaculation Inhibition % [1]: 60%

CCN(CC)C(=O)c1ccc([C@H](c2ccccc2)N2C[C@@H](C)N(Cc3ccc(O)cc3)C[C@@H]2C)cc1 [Example 37, 4-((alpha-S)-alpha-((2S,5R)-2,5-Dimethyl-4-(4-hydroxybenzyl)-1-piperazinyl)-benzyl)-N,N-diethylbenzamide]
Effective Dose [1]: 3 mg/kg
Ejaculation Inhibition % [1]: 50%

CCN(CC)C(=O)c1ccc([C@H](c2cccc(OC)c2)N2C[C@@H](C)N(Cc3ccccc3)C[C@@H]2C)cc1 [Example 38]
Effective Dose [1]: 3 mg/kg
Ejaculation Inhibition % [1]: 33%

CCN(CC)C(=O)c1ccc([C@H](c2cccc(OC)c2)N2C[C@@H](C)N(Cc3ccccc3F)C[C@@H]2C)cc1 [Example 39, 4-((alpha-R)-alpha-((2S,5R)-2,5-Dimethyl-4-(2-fluorobenzyl)-1-piperazinyl)-3-methoxybenzyl)-N,N-diethylbenzamide]
Effective Dose [1]: 10 mg/kg
Ejaculation Inhibition % [1]: 50%

C=CCN1C[C@@H](C)N([C@H](c2ccc(S(=O)(=O)N(C)C)cc2)c2cccc(O)c2)C[C@@H]1C [Example 40, 4-[(R)-((2R,5S)-4-Allyl-2,5-dimethylpiperazin-1-yl)(3-hydroxyphenyl)methyl]-N,N-dimethylbenzenesulfonamide]
Effective Dose [1]: 0.3 mg/kg
Ejaculation Inhibition % [1]: 50%

CCN(CC)C(=O)c1ccc([C@H](c2ccccc2)N2C[C@H](C)N(Cc3cccc(F)c3)C[C@H]2C)cc1 [Example 41, 4-((alpha-S)-alpha-((2R,5S)-2,5-Dimethyl-4-(3-fluorobenzyl)-1-piperazinyl)benzyl)-N,N-diethylbenzamide]
Effective Dose [1]: 0.4 mg/kg
Ejaculation Inhibition % [1]: 75%

Oc1ccc2c3c1O[C@H]1c4[nH]c5ccccc5c4C[C@@]4(O)[C@@H](C2)N(CC2CC2)CC[C@]314 [NTI, naltrindole, reference compound]
ejaculation response, antagonist alone ([1]; 0.1 mg/kg subcutaneous, 35 Hz, FIG. 4): did not affect the ejaculation response

C=CCN1C[C@H](C)N([C@H](c2ccc(C(=O)N(CC)CC)cc2)c2cccc(OC)c2)C[C@H]1C [SNC-80, reference compound]
contraction of mouse vas deferens smooth muscle in vitro [6]: block the contraction of mouse vas deferens smooth muscle in vitro
inhibitory effect on ejaculation at reduced dose ([1]; 0.1 mg/kg subcutaneous, 40 Hz, FIG. 3): inhibitory effect diminished
inhibitory effect on ejaculation with co-injected antagonist ([1]; 0.5 mg/kg SNC-80 plus 0.1 mg/kg NTI subcutaneous, 35 Hz, FIG. 4): abolished; also recorded: inhibitory effect was blocked
reduction of ejaculation (factor) ([1]; 0.5 mg/kg subcutaneous, 35 Hz, 10 minutes after injection, FIG. 4): at least 2
occurrence of ejaculation versus control group ([1]; 1 mg/kg subcutaneous, 40 Hz, 10 minutes after injection, FIG. 3): significantly reduced the occurrence of ejaculation
